According to article PMC3519527, “Compounds from Sorindeia juglandifolia (Anacardiaceae) exhibit potent anti-plasmodial activities in vitro and in vivo” (Malaria Journal, 2012):
Several values for one entry are separate records, joined by “and”; a condition that tells them apart may be missing. Equal values may be shown once. Where a name gives a salt, the structure may show the parent alone. Read-outs that look alike come from different tables or passages of the source. One block for each compound: values may come before it.

Experiments:
[1] = system: Plasmodium falciparum chloroquine-resistant strain W2; assay: In vitro screening against Plasmodium falciparum W2 (flow cytometry, 48 h); assay type: cell-based; settings: read-out: P. falciparum W2 IC50±SD
Experimental: Plasmodium falciparum strain W2, known to be resistant to chloroquine and other anti-malarials, was cultured in sealed flasks at 37°C, in a 3% O2, […] and 91% N2 atmosphere in RPMI 1640, 25 mM HEPES, pH 7.4, supplemented with heat inactivated 10% human serum and human erythrocytes to achieve a 2% haematocrit. Serum and erythrocytes were purified from blood voluntarily given by adults with no recent contact with malaria, and who have signed an informed consent form. Parasites were synchronized in the ring stage by serial treatment with 5% sorbitol (Sigma) and tested at 1% parasitaemia. Stock solutions of plant extracts were prepared as 1 mg/ml in DMSO, diluted as needed for individual experiments, and tested in triplicate as described previously. The stock solutions were diluted in supplemented RPMI 1640 medium so as to have at most 0.2% DMSO in the final reaction medium. Equal volumes (100μl) of inhibitors and 1% parasitaemia, 4% haematocrit culture were then added and gently mixed thoroughly. Negative controls contained equal concentrations of DMSO. Positive controls contained 1 μM chloroquine phosphate (Sigma). Cultures were incubated at 37°C for 48 h. Parasites at the ring stage were thereafter fixed by replacing the serum medium by an equal volume of 1% formaldehyde in PBS. Aliquots (5 μl) of each culture were then added to round-bottom polystyrene 96 well plates containing 150 μl of 100 mM NH4Cl, 0.1% Triton X- 100 and 1 nM YOYO-1 nuclear dye (Molecular Probes) in PBS, and the parasitaemia of treated and control cultures were compared using a Becton-Dickinson FACSort flow cytometer equipped with AMS-1 loader (Cytek Development) to count nucleated (parasitized) erythrocytes. Data acquisition was performed using Cell Quest software.

[2] = system: P. falciparum field isolates; assay: In vitro screening against Plasmodium falciparum field isolates (Giemsa smears, 48 h); assay type: cell-based
Experimental: Plasmodium falciparum isolates were prepared as described previously. Blood was collected from outpatients presenting at the Etoug-Ebe Baptist Health Centre in Yaoundé with uncomplicated malaria. Patients older than five years of age with mono infection with P. falciparum and parasite density greater than 6,000 asexual parasites per microliter of blood were considered for inclusion in the study. Those with recent history of self-medication with anti-malarial drugs were excluded. After patients agreed to participate in the study and signed the consent form, 5 mL of blood was collected from them by venipuncture into heparinized tubes. The blood was centrifuged at 3,000 rpm for 15 min and the supernatant discarded. The pellets were suspended in 10 mL of pre-warmed RPMI 1640 medium and centrifuged again twice at 3,000 rpm for 5 min, and the supernatant was then discarded. The volume of the packed-cells was estimated and mixed with an equal amount of RPMI 1640, 25 mM HEPES, pH 7.4, and subsequently used at 4% haematocrit for experiments. Thin smears were evaluated to assess the parasitaemia, the developmental stages of parasites, and the colour, shape and size of red blood cells. Nine such isolates were prepared and subsequently used for experiments.
The activity of plant products was assessed as previously described. […] Stock solutions of plant extracts were prepared at 1 mg/ml in DMSO and diluted as needed for individual experiments in 96-well plates using RPMI 1640, to achieve a maximum final DMSO concentration of 0.2%. Chloroquine was used as positive control at 1 μM, and the negative control was an equal concentration of DMSO. To assess the susceptibility of parasites to drugs, they were maintained in RPMI 1640 supplemented with 25 mM HEPES buffer (pH 7.4), 0.05% ampicillin, and 10% AB+ human serum at 37°C, in a candle jar. To achieve this, 200 μl parasite suspensions at 4% haematocrit and 0.1%– 0.3% parasitaemia were added to 50 μl of each concentration of inhibitor in individual wells, each tested in triplicate. Cultures were incubated at 37°C for 48 h in a candle jar. To estimate the effects of inhibitors after 48 h, thin smears from treated and control cultures were fixed in methanol for 30 s, stained using fresh 5% Giemsa solution (Sigma) in phosphate buffer (pH 7.1), and examined by counting the parasitaemia per 100 erythrocytes. IC50s were calculated from curves plotting percent growth versus drug concentration using Prism 5.0 software with data fitted by nonlinear regression to the variable slope sigmoidal dose–response formula y = 100/[1 + 10^(logIC50− x)H, where H is the Hill coefficient or slope factor [5].

[3] = system: Plasmodium berghei strain B; assay: In vivo suppressive test in mice; set-up: species or system Plasmodium berghei in Swiss albino mice; settings: for SD50 (suppressive dose at 50%): oral, parasitaemia 24 h after last dose
Experimental: (§1) Compound 1 (2,3,6-trihydroxy benzoic acid), obtained from the fractionation of S.juglandifolia extract, was assessed in vivo using the Plasmodium berghei rodent parasite model, according to the procedure described by Okokon et al.[12] with a few modifications. Plasmodium berghei strain B (MRA-406, MR4, ATCC® Manassas Virginia) was obtained from BEI Resources and used for the experiments. Female Swiss albino mice aged eight weeks and weighing ~20 g were used for efficacy and toxicity experiments. These animals were bred in the animal house of the Faculty of Medicine, University of Yaoundé I. They were fed a standard laboratory diet (S.P.C. Ltd., Bafoussam, Cameroon) and given clean tap water ad libitum. Animal welfare requirements were strictly considered during the experiments, as described in the protocol approved by the National Ethics Committee (Reg. No.FWAIRB00001954). To start infections, a cryotube of parasites was thawed and the undiluted contents were injected immediately i.p. into naïve recipient mice. Three days after infection, the parasitaemia was evaluated daily in tail vein blood through Giemsa-stained thin smear observation under oil immersion at 100X magnification. Passage of infection into new mice consisted of an i.p. injection of 200 μL of 10^6 infected erythrocytes/mL sterile PBS. The test compound was dissolved and diluted in Tween 20: Ethanol (7:3 v/v).
Preliminary screening of the compound consisted of a suppressive test. To achieve this, animals were infected i.p. with 200 μL of 10^6 infected erythrocytes/mL sterile PBS. Four hours after infection, duplicate batches of animals were treated as follows: four batches of six mice each were given test drug orally at respective dosages of 10, 30, 50 and 100 mg/kg, and subsequently once daily for four consecutive days. Negative controls consisted of one batch of 6 infected mice receiving no drug (dose 0), and one batch of six uninfected animals. Positive controls consisted of one batch of infected mice receiving quinine sulfate at 24 mg/kg.
(§2) Curative assays were subsequently conducted using the same setting, with animal receiving drug at daily oral dosages of 10, 30, 50 and 100 mg/kg for 5 consecutive days, starting day 3 (72 hours) after infection. Thin blood smears were made daily from the tail blood of mice and the level of parasitaemia assessed by examination of Giemsa-stained smears using a microscope at 100X magnification.

recombinant falcipain-2 = target: T1, recombinant falcipain-2 (Plasmodium falciparum, UniProt Q8I6U4); assay: Falcipain-2 inhibition (Z-Leu-Arg-AMC hydrolysis); assay type: biochemical; settings: recombinant enzyme, pH 5.5, triplicate; for IC50: read-out: Falcipain-2 IC50±SD
T1 construct: made in house
T1 sequence (Q8I6U4 244-484): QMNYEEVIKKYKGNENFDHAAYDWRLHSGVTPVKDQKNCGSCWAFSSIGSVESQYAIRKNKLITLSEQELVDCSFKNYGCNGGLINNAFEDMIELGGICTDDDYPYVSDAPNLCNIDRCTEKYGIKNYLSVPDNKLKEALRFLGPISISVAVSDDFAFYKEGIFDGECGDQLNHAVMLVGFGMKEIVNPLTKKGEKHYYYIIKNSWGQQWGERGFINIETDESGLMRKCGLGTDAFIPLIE
Experimental: Falcipain-2 activity was measured as hydrolysis of the fluorogenic substrate benzyloxycarbonyl-Leu-Arg-7-amino-4-methyl-coumarin (Z-Leu-Arg-AMC) using a Fluoroskan II spectrofluorometer, as described previously. For inhibitor assays, recombinant falcipain-2 prepared as described previously was incubated with inhibitors (added from stocks concentrated 100- to 1,000-fold in dimethyl sulfoxide [DMSO]) with 10 mM dithiothreitol, pH 5.5, for 30 min at room temperature before the substrate (50 μM) was added. Equal concentrations of enzyme were used for each experiment. Multiple inhibitor concentrations were studied in triplicate, and the rates of hydrolysis were determined and compared to those of controls containing equal concentrations of DMSO. All values were normalized to the control activity, and IC50s were calculated with the Prism 5.0 program, with data fitted by nonlinear regression.

[4] = system: Plasmodium berghei strain B; assay: In vivo curative test in mice; set-up: species or system Plasmodium berghei in Swiss albino mice
Experimental: as §1, §2

[5] = Plasmodium falciparum, W2, 48 h, W2 strain, 48 h, triplicate
[6] = Plasmodium falciparum, isolate E01, read-out: IC50±SD
[7] = Plasmodium falciparum, isolate E02, read-out: IC50±SD
[8] = Plasmodium falciparum, isolate E03, read-out: IC50±SD
[9] = Plasmodium falciparum, isolate E04, read-out: IC50±SD
[10] = Plasmodium falciparum, isolate E05, read-out: IC50±SD
[11] = Plasmodium falciparum, isolate E06, read-out: IC50±SD
[12] = Plasmodium falciparum, isolate E07, read-out: IC50±SD
[13] = Plasmodium falciparum, isolate E08, read-out: IC50±SD
[14] = Plasmodium falciparum, isolate E09, read-out: IC50±SD

melting point: 188.5 to 190 °C | IC50 (recombinant falcipain-2): 35.4 µM | IC50 [2, 6]: 11.3 ± 0.92 µM | IC50 [2, 7]: 17.1 ± 0.48 µM | IC50 [2, 8]: 22 ± 0.93 µM | IC50 [2, 9]: 24.8 ± 1.04 µM | IC50 [2, 10]: 6.32 ± 0.16 µM | IC50 [2, 11]: 36.1 ± 2.01 µM | IC50 [2, 12]: 33.7 ± 0.61 µM | IC50 [2, 13]: 9.92 ± 4.82 µM | IC50 [2, 14]: 19.77 ± 0.14 µM | IC50 ([2]; Plasmodium falciparum, span over the nine field isolates, read-out: IC50 against P. falciparum isolates): 6.3 µM | IC50 ([2]; span over the nine field isolates, read-out: IC50 against P. falciparum isolates): 6.3 to 36.1 µM | IC50 [1, 5]: 16.5 µM | IC50 ([1]; W2 strain, 48 h, triplicate, listed as 2,3,6-trihydroxy benzoic acid (1)): 16.5 ± 0.47 µM
SMILES: O=C(O)c1c(O)ccc(O)c1O [Compound 1, 2,3,6-trihydroxy benzoic acid]
Mean % Suppression/Inhibition ([3]; 10 mg/kg oral, once daily, 24 h after last dose): 22.73% | Mean % Suppression/Inhibition ([3]; 30 mg/kg oral, once daily, 24 h after last dose): 35.95% | Mean % Suppression/Inhibition ([3]; 50 mg/kg oral, once daily, 24 h after last dose): 53.66% | Mean % Suppression/Inhibition ([3]; 100 mg/kg oral, once daily, 24 h after last dose): 69.63% | SD50 (suppressive dose at 50%) [3]: 44.9 mg/kg and 44.9 ± 1.6 mg/kg | SD50 (suppressive dose at 50%) ([3]; listed as 2,3,6-trihydroxy benzoic acid (1)): ^cSD50 = 44.9 ± 1.6 mg/kg | Mean % Suppression/Inhibition ([4]; 10 mg/kg oral daily for 5 days from day 3): 20.95% | Mean % Suppression/Inhibition ([4]; 30 mg/kg oral daily for 5 days from day 3): 41.00% | Mean % Suppression/Inhibition ([4]; 50 mg/kg oral daily for 5 days from day 3): 57.27% | Mean % Suppression/Inhibition ([4]; 100 mg/kg oral daily for 5 days from day 3): 66.40% | ED50 ([4]; Plasmodium berghei, oral, parasitaemia 24 h after last dose, read-out: ED50 (effective dose at 50%)): 42.2 mg/kg

IC50 (recombinant falcipain-2): 6.1 µM and 6.09 µM | IC50 [2, 6]: 7.02 ± 0.07 µM | IC50 [2, 7]: 14.7 ± 0.15 µM | IC50 [2, 8]: 19.8 ± 0.38 µM | IC50 [2, 9]: 18.8 ± 1.04 µM | IC50 [2, 10]: 12.2 ± 0.02 µM | IC50 [2, 11]: 23.1 ± 2.01 µM | IC50 [2, 12]: 26.69 ± 0.02 µM | IC50 [2, 13]: 13.3 ± 1.85 µM | IC50 [2, 14]: 24.4 ± 0.05 µM | IC50 [1, 5]: 13 µM | IC50 ([1]; W2 strain, 48 h, triplicate, listed as 2,3,6-trihydroxy methyl benzoate (2)): 13 ± 1.63 µM
SMILES: COC(=O)c1c(O)ccc(O)c1O [Compound 2, 2,3,6-trihydroxy methyl benzoate]

Falcipain-2 IC50±SD (recombinant falcipain-2): 0.049 ± 0.003 µg/mL
SMILES: CC(C)C[C@H](NC(=O)[C@H]1O[C@@H]1C(=O)O)C(=O)NCCCCN=C(N)N [Compound E64, l-transepoxy-succinyl-leucylamido-(4-guanidino)-butane, reference compound]

Further lines, the compound ahead of its results:

SMILES: C[C@@H]1CC[C@H]2[C@@H](C)C(=O)O[C@@H]3O[C@@]4(C)CC[C@@H]1[C@]32OO4 [ART, artemisinin, reference compound]
IC50 [1, 5]: 0.007 ± 0.01 µg/mL

SMILES: CCN(CC)CCCC(C)Nc1ccnc2cc(Cl)ccc12 (centres unmarked) [CQ, chloroquine, reference compound]
IC50 ([2]; Plasmodium falciparum, read-out: IC50 against P. falciparum isolates, span over the nine field isolates): 0.0166 to 0.0384 µg/mL | IC50 ([2]; Plasmodium falciparum, read-out: IC50±SD, isolate E01): 0.0254 ± 0.00347 µg/mL | IC50 ([2]; Plasmodium falciparum, read-out: IC50±SD, isolate E02): 0.0233 ± 0.019 µg/mL | IC50 ([2]; Plasmodium falciparum, read-out: IC50±SD, isolate E03): 0.0384 ± 0.00437 µg/mL | IC50 ([2]; Plasmodium falciparum, read-out: IC50±SD, isolate E04): 0.0272 ± 0.00072 µg/mL | IC50 ([2]; Plasmodium falciparum, read-out: IC50±SD, isolate E05): 0.0166 ± 0.00148 µg/mL | IC50 ([2]; Plasmodium falciparum, read-out: IC50±SD, isolate E06): 0.0192 ± 0.00486 µg/mL | IC50 ([2]; Plasmodium falciparum, read-out: IC50±SD, isolate E07): 0.0243 ± 0.00332 µg/mL | IC50 ([2]; Plasmodium falciparum, read-out: IC50±SD, isolate E08): 0.0187 ± 0.00094 µg/mL | IC50 ([2]; Plasmodium falciparum, read-out: IC50±SD, isolate E09): 0.0188 ± 0.00187 µg/mL | IC50 ([1]; Plasmodium falciparum, W2, 48 h): 0.05 ± 0.01 µg/mL

SMILES: C=C[C@H]1C[N@@]2CC[C@H]1C[C@H]2[C@H](O)c1ccnc2ccc(OC)cc12 [Quinine sulfate, quinine sulfate, reference compound]
Mean % Suppression/Inhibition ([3]; 24 mg/kg, positive control): 71.34% | Mean % Suppression/Inhibition ([4]; 24 mg/kg, positive control): 89.50%
